Legend:
[1] = test system: GSC1228, GSC222, and GSC316; experiment: Western blot of global histone modifications; format: cell-based; details: 5 μM, 96 h; changes not statistically significant
Protocol: The effects of S2172 on global histone modifications in GSCs were examined using western blot analysis. GSC cells were treated with 5 μM of S2172 since […] of the cells are still viable at this concentration (Fig. 2, Supplementary Fig. S1E). […] Treatment of GSCs with S2172 increased the overall levels of H3K4me2 as well as H3K9me2. However, these changes were not statistically significant (Fig. 2A, B).
Fig. 2 S2172 affected H3K4me2 modifications. A Western blot analysis of H3K4me1, H3K4me2, H3K4me3, H3K9me2, and H3 after treatment with either DMSO or S2172 (5 μM) for 96 h in GSC1228, GSC222, and GSC316. Histone H3 was used as the loading control. B Quantification of band signal intensities from the western blot of A. The y-axis in the panel indicates relative signal intensity of each protein normalized to histone H3. Error bars indicate the SD. […]
The density of bands was quantified using ImageJ software (https://imagej.nih.gov/ij/). […]
When mice were scanned with MRI, mice were anesthetized with isoflurane (3% in air) and placed in MRS 3017 Benchtop MRI Systems (MR Solutions, Guildford, UK). Using MRI images, tumor volumes were obtained by compiling tumor areas from all slices that contained tumors and calculated by ImageJ software (https://imagej.nih.gov/ij/) {Towner, […]

LSD2 = molecular target: T1, LSD2 (Homo sapiens, UniProt Q8NB78); experiment: Enzyme inhibition assay (in vitro peroxidase assay) against LSD2
T1 sequence (Q8NB78 1-822): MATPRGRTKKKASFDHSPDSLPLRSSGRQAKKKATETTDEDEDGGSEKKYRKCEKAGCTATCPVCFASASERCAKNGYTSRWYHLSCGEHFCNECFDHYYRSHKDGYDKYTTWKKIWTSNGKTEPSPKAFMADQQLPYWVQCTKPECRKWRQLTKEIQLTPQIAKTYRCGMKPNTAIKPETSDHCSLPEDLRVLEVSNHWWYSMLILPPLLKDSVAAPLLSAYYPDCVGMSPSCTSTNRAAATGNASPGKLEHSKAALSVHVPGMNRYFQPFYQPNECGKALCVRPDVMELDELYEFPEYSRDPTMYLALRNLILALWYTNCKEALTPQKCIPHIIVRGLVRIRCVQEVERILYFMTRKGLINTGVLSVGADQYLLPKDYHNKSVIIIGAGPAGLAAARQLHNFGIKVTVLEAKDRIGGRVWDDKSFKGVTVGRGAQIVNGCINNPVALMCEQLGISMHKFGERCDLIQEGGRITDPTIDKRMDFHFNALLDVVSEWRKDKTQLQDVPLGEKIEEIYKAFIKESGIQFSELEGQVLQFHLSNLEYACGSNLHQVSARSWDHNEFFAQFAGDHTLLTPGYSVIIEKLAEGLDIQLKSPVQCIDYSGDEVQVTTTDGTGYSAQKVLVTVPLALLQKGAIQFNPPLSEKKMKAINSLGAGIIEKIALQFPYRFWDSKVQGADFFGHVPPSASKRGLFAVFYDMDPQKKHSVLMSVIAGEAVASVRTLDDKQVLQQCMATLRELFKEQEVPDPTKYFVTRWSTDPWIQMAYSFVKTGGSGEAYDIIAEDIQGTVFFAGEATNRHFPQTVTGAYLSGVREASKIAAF
Protocol: Enzyme inhibition assays against LSD1, LSD2, MAO-A, and MAO-B were performed as previously described [25]. Technical replicates, n = 3.

- Ki (LSD2): > 250 µM
- Inhibition of LSD2 (in words) (LSD2; in vitro peroxidase assay): not inhibited
SMILES: NC1CCC(NC2CC2c2cc(F)cc(F)c2OCc2ccccc2)CC1 (stereo not drawn) [S2172]
- overall levels of H3K4me2 and H3K9me2 [1]: increased

— PMC11645267, “Novel pharmacologic inhibition of lysine-specific demethylase 1 as a potential therapeutic for glioblastoma” (Cancer Gene Therapy, 2024)
